IC50 data for 34 compounds are collected here from patent US20140155376A1, “PYRROLOPYRAZINE KINASE INHIBITORS” (Hoffmann-La Roche Inc., priority 2010, published 2014).

T1 sequence (P52333 810-1124): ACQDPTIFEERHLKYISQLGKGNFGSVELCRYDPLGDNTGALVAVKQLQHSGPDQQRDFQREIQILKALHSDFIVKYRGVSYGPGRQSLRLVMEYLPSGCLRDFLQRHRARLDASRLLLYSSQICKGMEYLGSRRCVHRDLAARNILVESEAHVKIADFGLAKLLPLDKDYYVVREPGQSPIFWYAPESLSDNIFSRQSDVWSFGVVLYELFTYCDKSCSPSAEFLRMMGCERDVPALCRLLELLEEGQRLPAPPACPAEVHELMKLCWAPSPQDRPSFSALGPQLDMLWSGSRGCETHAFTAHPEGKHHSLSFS

The assay concerns the target T1, JAK3 (recombinant human kinase domain; h-jak3(810-1124)) (Homo sapiens, UniProt P52333).
T1 construct: h-jak3(810- 1124)-sf9-c; made in house; host or cells: Sf9 insect cells
As to the kind of experiment: Determination of IC50 of Janus Kinase (JAK) inhibition: JAK3, radioactive end-point assay with 33P-ATP. Particulars: JAK3 kinase domain; ATP 1.5 uM, peptide 50 uM, 20 minutes, room temperature, 10% DMSO; read-out: Ic50 h-jak3(810-1124)-sf9-c:no additive. Type of assay: biochemical.
Take `C[C@H](NC(=O)c1c[nH]c2ncc(-c3ccc(C(=O)N4CCC(C#N)CC4)s3)nc12)C(C)(C)C` [Example I-167, 2-[5-(4-Cyano-piperidine-1-carbonyl)-thiophen-2-yl]-5H-pyrrolo[2,3-b]pyrazine-7-carboxylic acid ((S)-1,2,2-trimethyl-propyl)-amide]: the IC50 stood at 0.32 nM.
For `CC(C)NC(=O)c1c[nH]c2ncc(Oc3ccccc3Cl)nc12` [Example I-255, 2-(2-Chloro-phenoxy)-5H-pyrrolo[2,3-b]pyrazine-7-carboxylic acid isopropylamide], the half-inhibitory concentration (IC50) amounted to 382 nM.
Under `CC(C)NC(=O)c1c[nH]c2ncc(Oc3ccc4c(c3)[C@H](NC(=O)C3CCOCC3)CC4)nc12` [Example I-283, 2-{(R)-3-[(Tetrahydro-pyran-4-carbonyl)-amino]-indan-5-yloxy}-5H-pyrrolo[2,3-b]pyrazine-7-carboxylic acid isopropylamide] stands 56.7 nM; under `CC(C)NC(=O)c1c[nH]c2ncc(Oc3ccc4c(c3)[C@H](NC=O)CC4)nc12` [Example I-301, 2-((R)-3-Formylamino-indan-5-yloxy)-5H-pyrrolo[2,3-b]pyrazine-7-carboxylic acid isopropylamide], 118 nM; under `CC(C)(CO)CNC(=O)c1c[nH]c2ncc(Br)nc12` [Example I-1, 2-Bromo-5H-pyrrolo[2,3-b]pyrazine-7-carboxylic acid (3-hydroxy-2,2-dimethyl-propyl)-amide], 225 nM.
As for `CC(Cc1ccc(F)cc1)NC(=O)c1ccc(-c2cnc3[nH]cc(C(=O)N[C@@H](C)C(C)(C)C)c3n2)s1` (stereo partly drawn) [Example I-159, 2-{5-[2-(4-Fluoro-phenyl)-1-methyl-ethylcarbamoyl]-thiophen-2-yl}-5H-pyrrolo[2,3-b]pyrazine-7-carboxylic acid ((S)-1,2,2-trimethyl-propyl)-amide], the IC50 was found to be 0.53 nM.
Under `CC(C)(O)C(NC(=O)c1c[nH]c2ncc(C3CC3)nc12)C(F)(F)F` (stereo not shown) [Example I-93, 2-Cyclopropyl-5H-pyrrolo[2,3-b]pyrazine-7-carboxylic acid (2-hydroxy-2-methyl-1-trifluoromethyl-propyl)-amide] stands 57.8 nM.
With `C[C@@H](NC(=O)c1c[nH]c2ncc(C3CC3)nc12)C1(C#N)CCCC1` [Example I-100, 2-Cyclopropyl-5H-pyrrolo[2,3-b]pyrazine-7-carboxylic acid [(R)-1-(1-cyano-cyclopentyl)-ethyl]-amide] the figure was 38.5 nM; with `C[C@H](NC(=O)c1c[nH]c2ncc(C3CC3)nc12)C1(O)CCCC1` [Example I-97, 2-Cyclopropyl-5H-pyrrolo[2,3-b]pyrazine-7-carboxylic acid [(S)-1-(1-hydroxy-cyclopentyl)-ethyl]-amide], 18 nM; with `CC(NC(=O)c1ccc(-c2cnc3[nH]cc(C(=O)N[C@@H](C)C(C)(C)C)c3n2)s1)c1cccnc1` (stereo partly drawn) [Example I-171, 2-[5-(1-Pyridin-3-yl-ethylcarbamoyl)-thiophen-2-yl]-5H-pyrrolo[2,3-b]pyrazine-7-carboxylic acid ((S)-1,2,2-trimethyl-propyl)-amide], 0.23 nM.
On to `COCC(C)(C)CNC(=O)c1c[nH]c2ncc(C3CC3)nc12` [Example I-59, 2-Cyclopropyl-5H-pyrrolo[2,3-b]pyrazine-7-carboxylic acid (3-methoxy-2,2-dimethyl-propyl)-amide], for which the IC50 turned out to be 58.9 nM.
Consider `COc1ccc(OC)c(CNC(=O)c2ccc(-c3cnc4[nH]cc(C(=O)N[C@@H](C)C(C)(C)C)c4n3)s2)c1` [Example I-204, 2-[5-(2,5-Dimethoxy-benzylcarbamoyl)-thiophen-2-yl]-5H-pyrrolo[2,3-b]pyrazine-7-carboxylic acid ((S)-1,2,2-trimethyl-propyl)-amide], for which the IC50 turned out to be 0.56 nM.
Under `CC(C)NC(=O)c1c[nH]c2ncc(Oc3ccc4c(c3)C(=O)CC4)nc12` [Example I-297, 2-(3-Oxo-indan-5-yloxy)-5H-pyrrolo[2,3-b]pyrazine-7-carboxylic acid isopropylamide] stands 573 nM.
With `Cc1cc(-c2cnc3[nH]cc(C(=O)N[C@@H](C)C(C)(C)C)c3n2)sc1C(=O)NC1CCOCC1` [Example I-219, 2-[4-Methyl-5-(tetrahydro-pyran-4-ylcarbamoyl)-thiophen-2-yl]-5H-pyrrolo[2,3-b]pyrazine-7-carboxylic acid ((S)-1,2,2-trimethyl-propyl)-amide] the figure was 0.24 nM; with `COC[C@@H](NC(=O)c1c[nH]c2ncc(C3CC3)nc12)C(C)(C)C` [Example I-65, 2-Cyclopropyl-5H-pyrrolo[2,3-b]pyrazine-7-carboxylic acid ((S)-1-methoxymethyl-2,2-dimethyl-propyl)-amide], 262 nM; with `CC(C)(C(=O)O)C(NC(=O)c1c[nH]c2ncc(C3CC3)nc12)C1CC1` (stereo not shown) [Example I-92, 3-Cyclopropyl-3-[(2-cyclopropyl-5H-pyrrolo[2,3-b]pyrazine-7-carbonyl)-amino]-2,2-dimethyl-propionic acid], 95.1 nM.
Take `C[C@H](NC(=O)c1c[nH]c2ncc(C3CC3)nc12)[C@@](C)(O)C(F)(F)F` [Example I-53, 2-Cyclopropyl-5H-pyrrolo[2,3-b]pyrazine-7-carboxylic acid ((1S,2R)-3,3,3-trifluoro-2-hydroxy-1,2-dimethyl-propyl)-amide]: the IC50 stood at 8.38 nM.
With `C[C@H]1C[C@H]1c1cnc2[nH]cc(C(=O)NCC(C)(C)CO)c2n1` [Example I-46, 2-((1R,2S)-2-Methyl-cyclopropyl)-5H-pyrrolo[2,3-b]pyrazine-7-carboxylic acid (3-hydroxy-2,2-dimethyl-propyl)-amide] the figure was 228 nM.
With `CC(C)NC(=O)c1c[nH]c2ncc(Oc3ccccc3Cc3ccccc3)nc12` [Example I-237, 2-(2-Benzyl-phenoxy)-5H-pyrrolo[2,3-b]pyrazine-7-carboxylic acid isopropylamide] the figure was 5360 nM; with `CC[C@H](C)NC(=O)c1c[nH]c2ncc(Oc3ccc4c(c3)[C@H](NC(C)=O)CC4)nc12` [Example I-296, 2-((R)-3-Acetylamino-indan-5-yloxy)-5H-pyrrolo[2,3-b]pyrazine-7-carboxylic acid ((S)-sec-butyl)-amide], 22.9 nM.
With `CC(C)NC(=O)c1c[nH]c2ncc(Oc3cccc(C(C)C)c3)nc12` [Example I-234, 2-(3-Isopropyl-phenoxy)-5H-pyrrolo[2,3-b]pyrazine-7-carboxylic acid isopropylamide] the figure was 980 nM; with `CCn1cc(-c2cnc3[nH]cc(C(=O)N[C@H](C)C(C)(C)O)c3n2)cn1` [Example I-99, 2-(1-Ethyl-1H-pyrazol-4-yl)-5H-pyrrolo[2,3-b]pyrazine-7-carboxylic acid ((R)-2-hydroxy-1,2-dimethyl-propyl)-amide], 6.61 nM; with `CCN(CC)C(=O)c1ccc(-c2cnc3[nH]cc(C(=O)N[C@@H](C)C(C)(C)C)c3n2)s1` [Example I-160, 2-(5-Diethylcarbamoyl-thiophen-2-yl)-5H-pyrrolo[2,3-b]pyrazine-7-carboxylic acid ((S)-1,2,2-trimethyl-propyl)-amide], 0.32 nM.
For the compound `CC(C)NC(=O)c1c[nH]c2ncc(Oc3cccc(C(F)(F)F)c3)nc12` [Example I-235, 2-(3-Trifluoromethyl-phenoxy)-5H-pyrrolo[2,3-b]pyrazine-7-carboxylic acid isopropylamide], the IC50 turned out to be 784 nM.
Under `CC(C)NC(=O)c1c[nH]c2ncc(Oc3cccc(C(C)(C)C)c3)nc12` [Example I-231, 2-(3-tert-Butyl-phenoxy)-5H-pyrrolo[2,3-b]pyrazine-7-carboxylic acid isopropylamide] stands 4220 nM.
With `CC[C@H](CO)NC(=O)c1c[nH]c2ncc(C3CC3)nc12` [Example I-58, 2-Cyclopropyl-5H-pyrrolo[2,3-b]pyrazine-7-carboxylic acid ((R)-1-hydroxymethyl-propyl)-amide] the figure was 37.7 nM; with `CC(C)(CO)CNC(=O)c1c[nH]c2ncc(N3CCC(C)(C)C3)nc12` [Example I-14, 2-(3,3-Dimethyl-pyrrolidin-1-yl)-5H-pyrrolo[2,3-b]pyrazine-7-carboxylic acid (3-hydroxy-2,2-dimethyl-propyl)-amide], 409 nM; with `CC(C)NC(=O)c1c[nH]c2ncc(Oc3ccc4[nH]ccc4c3)nc12` [Example I-277, 2-(1H-Indol-5-yloxy)-5H-pyrrolo[2,3-b]pyrazine-7-carboxylic acid isopropylamide], 229 nM.
With `CC(C)NC(=O)c1c[nH]c2ncc(Oc3ccc4c(c3)[C@H](NC(N)=O)CC4)nc12` [Example I-299, 2-((R)-3-Ureido-indan-5-yloxy)-5H-pyrrolo[2,3-b]pyrazine-7-carboxylic acid isopropylamide] the figure was 143 nM.
Turning to `CC(=O)N1CCCC(CNC(=O)c2c[nH]c3ncc(C4CC4)nc23)C1` (stereo not shown) [Example I-136, 2-Cyclopropyl-5H-pyrrolo[2,3-b]pyrazine-7-carboxylic acid (1-acetyl-piperidin-3-ylmethyl)-amide], the half-inhibitory concentration (IC50) was 283 nM.
For the compound `N#CCCNC(=O)c1c[nH]c2ncc(C3CC3)nc12` [Example I-13, 2-Cyclopropyl-5H-pyrrolo[2,3-b]pyrazine-7-carboxylic acid (2-cyano-ethyl)-amide], the IC50 was found to be 436 nM.
With `CC(O)CCNC(=O)c1c[nH]c2ncc(C3CC3)nc12` (stereo not shown) [Example I-68, 2-Cyclopropyl-5H-pyrrolo[2,3-b]pyrazine-7-carboxylic acid (3-hydroxy-butyl)-amide] the figure was 358 nM.
Under `C[C@@H](NC(=O)c1c[nH]c2ncc(Oc3ccccc3)nc12)C(C)(C)O` [Example I-116, 2-Phenoxy-5H-pyrrolo[2,3-b]pyrazine-7-carboxylic acid ((R)-2-hydroxy-1,2-dimethyl-propyl)-amide] stands 682 nM; under `COc1cccc(Oc2cnc3[nH]cc(C(=O)NC(C)C)c3n2)c1` [Example I-229, 2-(3-Methoxy-phenoxy)-5H-pyrrolo[2,3-b]pyrazine-7-carboxylic acid isopropylamide], 184 nM.
